Data from ChEMBL document CHEMBL1152855, “Regioselective synthesis of dispiro[1H-indene-2,3'-pyrrolidine-2',3''-[3H]indole]-1,2''(1''H)-diones of potential anti-tumor properties” (2009).

Legend:
SF-295 = assay: Growth inhibition of human SF295 cells at 10 uM after 48 hrs by sulforhodamine B assay; assay type: functional; settings: SF-295, 48 h, values are per cent of control
NCI/ADR-RES = assay: Growth inhibition of human NCI/ADR-RES cells at 10 uM after 48 hrs by sulforhodamine B assay; assay type: functional; settings: values are per cent of control
UO-31 = assay: Growth inhibition of human UO31 cells at 10 uM after 48 hrs by sulforhodamine B assay; assay type: functional; settings: UO-31, 48 h, values are per cent of control
MDA-MB-231 = assay: Growth inhibition of human MDA-MB-231 cells at 10 uM after 48 hrs by sulforhodamine B assay; assay type: functional; settings: MDA-MB-231, 48 h, values are per cent of control
TK-10 = assay: Growth inhibition of human TK10 cells at 10 uM after 48 hrs by sulforhodamine B assay; values are per cent of control; settings: TK-10, 48 h
SNB-75 = assay: Growth inhibition of human SNB75 cells at 10 uM after 48 hrs by sulforhodamine B assay; assay type: functional; settings: SNB-75, 48 h, values are per cent of control
SF-539 = assay: Growth inhibition of human SF539 cells at 10 uM after 48 hrs by sulforhodamine B assay; assay type: functional; settings: SF-539, 48 h, values are per cent of control
Rattus norvegicus [1] = assay: Antiinflammatory activity against carrageenan-induced paw edema in Wister albino rat assessed as inhibition of edema at 50 mg/kg, ip administered 1 hr prior to carrageenan challenge measured after 4 hrs relative to control; assay type: functional; settings: route intraperitoneal
SN12C = assay: Growth inhibition of human SN12C cells at 10 uM after 48 hrs by sulforhodamine B assay; assay type: functional; settings: values are per cent of control
OVCAR-4 = assay: Growth inhibition of human OVCAR4 cells at 10 uM after 48 hrs by sulforhodamine B assay; assay type: functional; settings: OVCAR-4, 48 h, values are per cent of control
A498 = assay: Growth inhibition of human A498 cells at 10 uM after 48 hrs by sulforhodamine B assay; assay type: functional; settings: A498, 48 h, values are per cent of control
SW-620 = assay: Growth inhibition of human SW620 cells at 10 uM after 48 hrs by sulforhodamine B assay; assay type: functional; settings: SW-620, 48 h, values are per cent of control
OVCAR-5 = assay: Growth inhibition of human OVCAR5 cells at 10 uM after 48 hrs by sulforhodamine B assay; assay type: functional; settings: OVCAR-5, 48 h, values are per cent of control
EKVX = assay: Growth inhibition of human EKVX cells at 10 uM after 48 hrs by sulforhodamine B assay; assay type: functional; settings: values are per cent of control
RPMI-8226 = assay: Growth inhibition of human RPMI8226 cells at 10 uM after 48 hrs by sulforhodamine B assay; assay type: functional; settings: RPMI-8226, 48 h, read-out: GI
Rattus norvegicus [2] = assay: Antiinflammatory activity against carrageenan-induced paw edema in Wister albino rat assessed as inhibition of edema at 50 mg/kg, ip administered 1 hr prior to carrageenan challenge measured after 4 hrs relative to indomethacin; assay type: functional; settings: route intraperitoneal
NCI-H226 = assay: Growth inhibition of human NCI-H226 cells at 10 uM after 48 hrs by sulforhodamine B assay; assay type: functional; settings: NCI-H226, 48 h, values are per cent of control
Rattus norvegicus [3] = assay: Antiinflammatory activity against carrageenan-induced paw edema in Wister albino rat assessed as inhibition of edema at 50 mg/kg, ip administered 1 hr prior to carrageenan challenge measured after 3 hrs relative to control; assay type: functional; settings: route intraperitoneal
SK-MEL-2 = assay: Growth inhibition of human SK-MEL-2 cells at 10 uM after 48 hrs by sulforhodamine B assay; assay type: functional; settings: SK-MEL-2, 48 h, read-out: GI
[4] = Growth inhibition of human Hs 578T cells at 10 uM after 48 hrs by sulforhodamine B assay; assay type: functional; settings: values are per cent of control
HCT-116 = assay: Growth inhibition of human HCT116 cells at 10 uM after 48 hrs by sulforhodamine B assay; assay type: functional; settings: HCT-116, 48 h, values are per cent of control
MCF7 = assay: Growth inhibition of human MCF7 cells at 10 uM after 48 hrs by sulforhodamine B assay; assay type: functional; settings: MCF7, 48 h, values are per cent of control
HOP-92 = assay: Growth inhibition of human HOP92 cells at 10 uM after 48 hrs by sulforhodamine B assay; assay type: functional; settings: HOP-92, 48 h, read-out: GI
HOP-62 = assay: Growth inhibition of human HOP62 cells at 10 uM after 48 hrs by sulforhodamine B assay; assay type: functional; settings: HOP-62, 48 h, values are per cent of control
NCI-H460 = assay: Growth inhibition of human NCI-H460 cells at 10 uM after 48 hrs by sulforhodamine B assay; assay type: functional; settings: NCI-H460, 48 h, values are per cent of control
U-251 = assay: Growth inhibition of human U251 cells at 10 uM after 48 hrs by sulforhodamine B assay; assay type: functional; settings: U-251, 48 h, values are per cent of control
CAKI-1 = assay: Growth inhibition of human Caki1 cells at 10 uM after 48 hrs by sulforhodamine B assay; assay type: functional; settings: CAKI-1, 48 h, values are per cent of control
UACC-62 = assay: Growth inhibition of human UACC62 cells at 10 uM after 48 hrs by sulforhodamine B assay; assay type: functional; settings: UACC-62, 48 h, values are per cent of control
LOX IMVI = assay: Growth inhibition of human LOXIMVI cells at 10 uM after 48 hrs by sulforhodamine B assay; assay type: functional; settings: values are per cent of control
SK-OV-3 = assay: Growth inhibition of human SKOV3 cells at 10 uM after 48 hrs by sulforhodamine B assay; assay type: functional; settings: SK-OV-3, 48 h, values are per cent of control
KM12 = assay: Growth inhibition of human KM12 cells at 10 uM after 48 hrs by sulforhodamine B assay; assay type: functional; settings: KM12, 48 h, values are per cent of control
SR = assay: Growth inhibition of human SR cells at 10 uM after 48 hrs by sulforhodamine B assay; assay type: functional; settings: values are per cent of control
T47D = assay: Growth inhibition of human T47D cells at 10 uM after 48 hrs by sulforhodamine B assay; assay type: functional; settings: values are per cent of control
PC-3 = assay: Growth inhibition of human PC3 cells at 10 uM after 48 hrs by sulforhodamine B assay; assay type: functional; settings: PC-3, 48 h, values are per cent of control
DU-145 = assay: Growth inhibition of human DU145 cells at 10 uM after 48 hrs by sulforhodamine B assay; assay type: functional; settings: DU-145, 48 h, values are per cent of control
MOLT-4 = assay: Growth inhibition of human MOLT4 cells at 10 uM after 48 hrs by sulforhodamine B assay; assay type: functional; settings: MOLT-4, 48 h, values are per cent of control
NCI-H522 = assay: Growth inhibition of human NCI-H522 cells at 10 uM after 48 hrs by sulforhodamine B assay; assay type: functional; settings: NCI-H522, 48 h, values are per cent of control
SK-MEL-28 = assay: Growth inhibition of human SK-MEL-28 cells at 10 uM after 48 hrs by sulforhodamine B assay; assay type: functional; settings: SK-MEL-28, 48 h, values are per cent of control
SF-268 = assay: Growth inhibition of human SF268 cells at 10 uM after 48 hrs by sulforhodamine B assay; assay type: functional; settings: SF-268, 48 h, values are per cent of control

Row | SMILES | growth, % of control at 10 µM (SF-295) [%] | growth, % of control at 10 µM (NCI/ADR-RES) [%] | growth, % of control at 10 µM (UO-31) [%] | growth, % of control at 10 µM (MDA-MB-231) [%] | growth, % of control at 10 µM (TK-10) [%] | growth, % of control at 10 µM (SNB-75) [%] | growth, % of control at 10 µM (SF-539) [%] | inhibition in vivo at 50 mg/kg (Rattus norvegicus [1]) [%] | growth, % of control at 10 µM (SN12C) [%] | growth, % of control at 10 µM (OVCAR-4) [%] | growth, % of control at 10 µM (A498) [%] | growth, % of control at 10 µM (SW-620) [%] | growth, % of control at 10 µM (OVCAR-5) [%] | growth, % of control at 10 µM (EKVX) [%] | inhibition of growth at 10 µM (RPMI-8226) [%] | activity relative to indomethacin (Rattus norvegicus [2]) [%] | growth, % of control at 10 µM (NCI-H226) [%] | inhibition in vivo at 50 mg/kg (Rattus norvegicus [3]) [%] | inhibition of growth at 10 µM (SK-MEL-2) [%] | growth, % of control at 10 µM [4] [%] | further results
1 | [3H]N1C(=O)[C@@]2(c3ccccc31)N(C)C[C@@H](c1ccc(OC)cc1)[C@@]21Cc2ccccc2C1=O | 103 | 89.4 | 92.5 | 74.4 | 176 | 102 | 101 | 21.8 | 105 | 118 | 105 | 87.5 | 106 | 92.4 | 66.8 | 45 | 85.9 | 20.5 | 8.7 | 16.8 | growth, % of control at 10 µM (HCT-116): 92.6%; growth, % of control at 10 µM (MCF7): 120%; inhibition of growth at 10 µM (HOP-92): 62.5%; growth, % of control at 10 µM (HOP-62): 100%; growth, % of control at 10 µM (NCI-H460): 107%; growth, % of control at 10 µM (U-251): 96.7%; growth, % of control at 10 µM (CAKI-1): 85.7%; growth, % of control at 10 µM (UACC-62): 71.8%; growth, % of control at 10 µM (LOX IMVI): 80.5%; growth, % of control at 10 µM (SK-OV-3): 97.3%; growth, % of control at 10 µM (KM12): 95.3%; growth, % of control at 10 µM (SR): 140%; growth, % of control at 10 µM (T47D): 97.5%; growth, % of control at 10 µM (PC-3): 66%; growth, % of control at 10 µM (DU-145): 110%; growth, % of control at 10 µM (MOLT-4): 79.8%; growth, % of control at 10 µM (NCI-H522): 91%; growth, % of control at 10 µM (SK-MEL-28): 108%; growth, % of control at 10 µM (SF-268): 113%
2 | [3H]C([3H])([3H])N1C(=O)[C@@]2(c3ccccc31)N(C)C[C@@H](c1ccc(OC)cc1)[C@@]21Cc2ccccc2C1=O | 89.1 | 96 | 75.5 | 94.3 | 165 | 79 | 99.9 | 3.8 | 89.1 | 78.8 | 95.2 | 83.3 | 97.7 | 67.3 | 17.7 | 8 | 78.7 | 3.3 | -6.92 | -4.27 | growth, % of control at 10 µM (HCT-116): 59.8%; growth, % of control at 10 µM (MCF7): 100%; inhibition of growth at 10 µM (HOP-92): 47.1%; growth, % of control at 10 µM (HOP-62): 88.2%; growth, % of control at 10 µM (NCI-H460): 95.4%; growth, % of control at 10 µM (U-251): 88.4%; growth, % of control at 10 µM (CAKI-1): 91.1%; growth, % of control at 10 µM (UACC-62): 63.1%; growth, % of control at 10 µM (LOX IMVI): 78.5%; growth, % of control at 10 µM (SK-OV-3): 99.4%; growth, % of control at 10 µM (KM12): 98.2%; growth, % of control at 10 µM (SR): 125%; growth, % of control at 10 µM (T47D): 93.3%; growth, % of control at 10 µM (PC-3): 58.4%; growth, % of control at 10 µM (DU-145): 128%; growth, % of control at 10 µM (MOLT-4): 107%; growth, % of control at 10 µM (NCI-H522): 87%; growth, % of control at 10 µM (SK-MEL-28): 101%; growth, % of control at 10 µM (SF-268): 108%
